How the values were obtained:
HSV-1 = assay: Anti-viral assay: GFP-encoding HSV-1 infection of pre-treated BHK cells, infected cells counted; type: cell-based, herpes simplex virus 1
Description: (§1) BHK cells were incubated with decreasing concentration of the solubilized test compounds for approx. 1 h. All concentrations were analyzed by six independent replicates on a black 96-well plate (PerkinElmer). Cells were infected with GFP-encoding wildtype HSV-1 virus and incubated for two days. Two days after infection, HSV-1-infected cells and GFP expressing cells were directly counted using the PerkinElmer Ensight system with optical cell culture plates. The instrument was controlled by […]. Anti-viral assays for HHV8 and mCMV were performed accordingly.
The cells were subsequently infected with GFP-encoding HSV at a multiplicity of infection of 2.5, and infected GFP-expressing cells were counted one day after infection using the PerkinElmer Ensight system. […] Thus, the sugar is not required as potential co-factor for drug uptake.

HHV-8 = assay: Anti-viral assay: GFP-encoding HHV-8 infection, infected cells counted; type: cell-based, Herpes virus 8
Description: as §1
The concentrations of materials were again adjusted to the same levels of anthocyanins (except the single berry extracts). No treatment or only maltodextrin served as controls. The cells were subsequently infected with GFP-encoding HHV-8, and infected GFP-expressing cells were counted two days after infection using the PerkinElmer Ensight system.

[1] = system: HSV-1 related intracellular β-Amyloid deposition in SH-SY5Y (neuroblastoma) cells; assay: β-Amyloid assay: intracellular deposition of β-Amyloid in HHV-1-infected SH-SY5Y cells (immunofluorescence, qualitative); type: cell-based; settings: 500, 250 and 125 μg/ml
Description: Samples were fixed using Histofix and permeabilized with 0.05% Triton X-100 in phosphate-buffered saline for 5 min. Blocking steps were performed with 3% bovine serum albumin for 1 h followed by primary antibody incubation with rabbit polyclonal anti-beta amyloid 1-42 and polyclonal goat anti-green fluorescent protein. Antibodies were diluted 1:100 and 1:1000, respectively, and were incubated overnight. To visualize β-Amyloid antibodies, donkey anti-rabbit AlexaFluor® 555 secondary antibodies were used (diluted 1:400); to detect the GFP antibodies donkey anti-goat AlexaFluor® 647 secondary antibodies (diluted 1:400) were used. The samples were then mounted in Fluoromount-G™ with DAPI and analyzed with the BZ-9000 BIOREVO System (Keyence).
Herpes virus infections and specifically HSV-1 infections are correlated to intracellular R-Amyloid and tau-protein deposition in cells of the CNS in progression of Alzheimer's disease. […] Therefore, in a first step the infectability of SH-SYSY neuroblastoma cells with HHV-1 was tested. After incubation of SH-SYSY cultures with HHV-1 (MOI=8), an infection rate of >90% (qualitatively) was detected that came along with high intracellular β-Amyloid deposition.

Compound | inhibition of HSV-1 by single anthocyanins (HSV-1) | viral inhibition of HHV-8 (in words) (HHV-8) | infected and β-Amyloid-positive cells [1]
OC[C@H]1O[C@@H](Oc2cc3c(O)cc(O)cc3[o+]c2-c2ccc(O)c(O)c2)[C@H](O)[C@@H](O)[C@@H]1O [C3G, Cyanidin 3-glucoside] | Neither C3G nor D3Gal or Pet3G inhibited HSV-1 |  | 
OC[C@H]1OC(Oc2cc3c(O)cc(O)cc3[o+]c2-c2cc(O)c(O)c(O)c2)[C@H](O)C(O)C1O (stereo partly drawn) [D3G, Delphinidin 3-glucoside] | decreased viral infectivity like Healthberry® 865 | identified as an active ingredient in Healthberry® 865 | 
OC[C@H]1O[C@@H](Oc2cc3c(O)cc(O)cc3[o+]c2-c2cc(O)c(O)c(O)c2)[C@H](O)[C@@H](O)[C@H]1O [D3Gal, Delphinidin 3-galactoside] | Neither C3G nor D3Gal or Pet3G inhibited HSV-1 |  | 
COc1cc(-c2[o+]c3cc(O)cc(O)c3cc2O[C@@H]2O[C@H](CO)[C@@H](O)[C@H](O)[C@H]2O)cc(O)c1O [Pet3G, Petunidin 3-glucoside] | Neither C3G nor D3Gal or Pet3G inhibited HSV-1 |  | 
maltodextrin |  |  | HHV-1-infected cells were mostly β-Amyloid-positive
